Among the test systems are MDA-N; SK-OV-3; 786-0; SF-268; UACC-257; OVCAR-5; T47D; LOX IMVI; OVCAR-3; TK-10; Hs-578T; HT-29; HCT-116; SK-MEL-5; NCI-H23; EKVX; RXF 393; NCI-H226; SNB-75; CAKI-1.
Common to all, as to assay: NCI tumour cell line growth inhibition, 48 h

Molecules are shown by their SMILES.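 Exposure lasted 48 hours, with cells grown in 96-well plates and compounds tested at five concentrations. GI50 is the concentration that inhibits growth by half.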 Activity calls are given as the source filed them. Rule as the data show it: active = GI50 up to about 1.1 µM and inactive = higher. Peptide text beside a SMILES is read from it. * marks the point of attachment. Boc = CC(C)(C)OC(=O)* Bounds are passed on as bounds.

With `O=C1/C(=C/c2ccc(O)c([N+](=O)[O-])c2)CCC/C1=C\c1ccc(O)c([N+](=O)[O-])c1`, the GI50 in the assay with MDA-N was 7.57 µM (inactive); with SK-OV-3, 26 µM (inactive); in the assay on 786-0 it was 11.5 µM (inactive); in the assay on SF-268 it was 4.28 µM (inactive); in the assay on UACC-257 it was 10.5 µM (inactive); with OVCAR-5, 15.4 µM (inactive). In addition, the GI50 with T47D was 14.9 µM (inactive); in the assay with LOX IMVI, 9.89 µM (inactive); with OVCAR-3, 8.36 µM (inactive); with TK-10 it was 23.2 µM (inactive); in the assay with Hs-578T, 4.48 µM (inactive); with HT-29, 12.3 µM (inactive). Further, the GI50 in the assay on HCT-116 is 8.45 µM (inactive); with SK-MEL-5, 9.27 µM (inactive); in the assay with NCI-H23, 12.3 µM (inactive); with EKVX it was 22.6 µM (inactive); in the assay with RXF 393, 10 µM (inactive); in the assay with NCI-H226 it was 11.6 µM (inactive). Besides, the GI50 in the assay on SNB-75 is 1.61 µM (inactive); in the assay with CAKI-1 it was 11.5 µM (inactive).
Turning to `NCCSCCC(=O)O`, the GI50 in the assay on MDA-N was > 81.7 µM (inactive); with SK-OV-3, > 65.8 µM (inactive); in the assay on 786-0, > 38.1 µM (inactive); in the assay on SF-268, > 77.3 µM (inactive); in the assay on UACC-257 it was > 59 µM (inactive); with OVCAR-5, > 100 µM (inactive). Moreover, the GI50 is > 33.5 µM (inactive) in the assay with T47D; 39 µM (inactive) with LOX IMVI; > 100 µM (inactive) in the assay on OVCAR-3; > 67.1 µM (inactive) with TK-10; > 100 µM (inactive) in the assay with Hs-578T; > 84.1 µM (inactive) in the assay with HT-29. The GI50 with HCT-116 is > 56.6 µM (inactive); in the assay on SK-MEL-5, 39.9 µM (inactive); in the assay on NCI-H23, > 25.8 µM (inactive); in the assay on EKVX, > 100 µM (inactive); in the assay on RXF 393 it was > 66.7 µM (inactive); in the assay with NCI-H226 it was > 100 µM (inactive). The GI50 with SNB-75 is > 40.3 µM (inactive); in the assay with CAKI-1, > 59.2 µM (inactive).
Consider `CCOCC(NC(=O)C(CC(C)C)NC(=O)OC(C)(C)C)C(N)=O` (stereo not drawn) (Boc-Leu-Ser(Et)-NH2; configuration not given here), for which the GI50 in the assay with MDA-N, in the assay on SK-OV-3, in the assay on 786-0, with SF-268, in the assay on UACC-257 and with OVCAR-5 was > 100 µM (inactive) throughout. The GI50 with T47D, with LOX IMVI, in the assay on OVCAR-3, in the assay with TK-10, in the assay with Hs-578T and in the assay on HT-29 was > 100 µM (inactive) each time. The GI50 in the assay on HCT-116, in the assay with SK-MEL-5, in the assay with NCI-H23, in the assay on EKVX, in the assay with RXF 393 and in the assay with NCI-H226 was > 100 µM (inactive) each time. In addition, the GI50 was 0.11 µM (active) in the assay on SNB-75 and > 100 µM (inactive) in the assay with CAKI-1.

The values are drawn from ChEMBL document CHEMBL1201862, “PubChem BioAssay data set” (2004).
